From US6686380B2, “Treatment of refractory tumors using epothilone derivatives” (Bristol-Myers Squibb Company, priority 2001, dated 2004)

What was measured:
[1] = system: HCT116/VM46, A2780Tax and Pat-7 cell lines; test: Cytotoxicity against cell lines that had developed resistance to paclitaxel (FIG. 2); assay type: cell-based, human
Experimental: (§1) The concentration needed to kill 90% of clonogenic cancer cells (IC90) was determined.

clonogenic tumor cells = test: Clonogenic cell colony-formation assay (IC90); assay type: cell-based; conditions: clonogenic cytotoxicity assay; read-out: concentration needed to kill 90% of clonogenic cancer cells (IC90)
Experimental: Clonogenic cell colony-formation assay: the potency required for the test compound and paclitaxel to kill clonogenic tumor cells (cells that are able to divide indefinitely to form a colony) in vitro was evaluated by a colony formation assay. The concentration needed to kill 90% of clonogenic cancer cells (IC90) was determined.

human tumor xenografts [2] = test: Antitumor activity by oral route of administration; assay type: in vivo, mice or rats; conditions: two different human tumor xenografts
Experimental: (§4) For administration to rodents, the subject compound was administered in either 1:9 ethanol/water, or 1:1:8 Cremophor®/ethanol/water. Final dilution for parenteral administration was made with water one hour before administration. Final dilution for oral administration was made with 0.25 M sodium phosphate buffer. Paclitaxel was dissolved in a 50/50 mixture of ethanol and Cremophor® and maintained at 4° C. Final dilution was made immediately prior to injection to prevent undesirable precipitation. Tumor cell lines HCT 116 human carcinoma and HCT116/V/M46 cells were maintained on McCoy's medium and 10% heat-inactivated fetal bovine serum. A2780 human ovarian carcinoma cells and A2780Tax cells were maintained in IMEM and 10% heat-inactivated fetal bovine serum. All other cell lines were maintained in RPM11640 medium with 10% heat-inactivated fetal bovine serum.

[3] = system: tubulin isolated from calf brain; test: Tubulin polymerization assay; assay type: biochemical; conditions: based on EC0.01
Experimental: Tubulin polymerization assay: the potency required for the test compound and paclitaxel to polymerize tubulin isolated from calf brain was evaluated by published techniques. The effective concentration (EC0.01) was defined as the interpolated concentration capable of inducing an initial slope of optical density (OD) of 0.01 OD/minute rate and is calculated using the formula: EC0.01=concentration/slope. EC0.01 values are expressed as the mean with standard deviation obtained from 3 different concentrations.

[4] = system: Pat-7 human ovarian carcinoma; test: In vivo antitumor testing, Pat-7 xenograft; set-up: species or system nude mice
Text: (§2) In Vivo Antitumor Testing: The following human tumors were used: ovarian carcinoma A2780, A2780Tax and Pat-7 (established from an ovarian tumor biopsy from a patient who had developed resistance to paclitaxel); HCT116, HCT116/VM46 and LS174T colon carcinomas, Pat-21 breast carcinoma, and Pat-26 pancreatic carcinoma (from a liver metastasis biopsy). Pat-7, Pat-21 ad Pat-26 xenografts were established initially from primary tumor biopsies directly as xenotransplants grown in whole-body irradiated nude mice without any intervening in vitro cell culturing steps. The innately paclitaxel-insensitive murine fibrosarcoma M5076 was also employed. The human tumor xenografts were maintained in Balb/c nu/nu nude mice. M5076 was maintained in C57BL/6 mice. Tumors were propagated as subcutaneous transplants in the appropriate mouse strain using tumor fragments obtained from donor mice. Tumor passage occurred biweekly for murine tumors and approximately every two to eight weeks for the various human tumor lines. With regard to efficacy testing, M5076 tumors were implanted in (C57B1/6×DBA/2)F1 hybrid mice, and human tumors were implanted in nude mice. All tumor implants for efficacy testing were subcutaneous (sc).
The required number of animals needed to detect a meaningful response (6-8) were pooled at the start of the experiment and each was given a subcutaneous implant of a tumor fragment (˜50 mg) with a 13-gauge trocar. For treatment of early-stage tumors, the animals were again pooled before distribution to the various treatment and control groups. For treatment of animals with advanced-stage disease, tumors were allowed to grow to the pre-determined size window (tumors outside the range were excluded) and animals were evenly distributed to various treatment and control groups. Treatment of each animal was based on individual body weight. Treated animals were checked daily for treatment related toxicity/mortality. Each group of animals was weighed before the initiation of treatment (Wt1) and then again following the last treatment dose (Wt2).
Tumor weights (mg) were estimated from the formula: […]
The maximum tolerated dose (MTD) is defined as the dose level immediately above which excessive toxicity (i.e. more than one death) occurred. […] Activity is described at the OD.
Tumor response end-point was expressed in terms of tumor growth delay (T-C value), defined as the difference in time (days) required for the treated tumors (T) to reach a predetermined target size compared to those of the control group (C).

[5] = system: panel of tumor cell lines; test: In vitro cytotoxicity, tetrazolium-based colorimetric assay; conditions: read-out: median cytotoxic concentration (IC50 values); 21 cell lines tested; 72 h incubation; FIG. 1
Experimental: as §4
The in vivo cytotoxicity was assessed in tumor cells by a tetrazolium-based colorimetric assay at 492 nm. The cells were seeded 24 h prior to drug addition. The reagents were added following a 72 h incubation with serially diluted test compound. Measurements were taken after a further three hours incubation. The results are expressed as median cytotoxic concentration (IC50 values).

[6] = system: A2780 human ovarian carcinoma; HCT116 and LS 174T human colon carcinoma; test: In vivo antitumor testing, paclitaxel-sensitive xenografts; set-up: species or system nude mice; conditions: three paclitaxel-sensitive human tumor xenografts
Text: as §2, with “Tumor passage occurred biweekly for murine tumors and approximately every two to eight weeks for the various human tumor lines. With regard to efficacy testing, M5076 tumors were implanted in (C57B1/6×DBA/2)F1 hybrid mice, and human tumors were implanted in nude mice. All tumor implants for efficacy testing were subcutaneous (sc).” left out
(§3) The required number of animals needed to detect a meaningful response (6-8) were pooled at the start of the experiment and each was given a subcutaneous implant of a tumor fragment (˜50 mg) with a 13-gauge trocar. […] For treatment of animals with advanced-stage disease, tumors were allowed to grow to the pre-determined size window (tumors outside the range were excluded) and animals were evenly distributed to various treatment and control groups. […]

[7] = system: HCT116 and A2780 tumor cell lines; test: Clonogenic cell colony-formation assay, paclitaxel-sensitive lines; assay type: cell-based, human; conditions: two sensitive tumor cell lines (HCT116 and A2780)
Experimental: as §1

[8] = system: Pat-7, A2780Tax, HCT116/VM46, Pat-21 and M5076 tumors; test: In vivo antitumor testing, paclitaxel-resistant tumors; set-up: species or system mice; conditions: all five paclitaxel-resistant tumors (four human and one murine)
Text: as §2, with “Tumor passage occurred biweekly for murine tumors and approximately every two to eight weeks for the various human tumor lines. With regard to efficacy testing, M5076 tumors were implanted in (C57B1/6×DBA/2)F1 hybrid mice, and human tumors were implanted in nude mice. All tumor implants for efficacy testing were subcutaneous (sc).” left out
as §3

human tumor xenografts [9] = conditions: general statement; cited from earlier work

Row | Compound | retention of cytotoxic potency in resistant versus sensitive lines ([1]; HCT116/VM46, A2780Tax and Pat-7 compared to the sensitive lines) | cytotoxicity compared with paclitaxel ([1]; three cell lines that had developed resistance to paclitaxel, FIG. 2) | IC90 (clonogenic tumor cells) [nM] | antitumor activity given orally compared with IV administration (human tumor xenografts [2]) | tubulin polymerization potency relative to paclitaxel [3] | LCK ([4]; PO, every 2 days x 5, at MTD, pH 8.0 buffered vehicle, first of two experiments) [LCK] | LCK ([4]; PO, every 2 days x 5, at MTD, pH 8.0 buffered vehicle, second of two experiments) [LCK] | oral antitumor activity ([4]; PO, every 2 days x 5 schedule) | IC50 [5] [nM] | antitumor activity compared with paclitaxel [6] | potency in killing clonogenic cells compared with paclitaxel [7] | antitumor efficacy compared with paclitaxel [8] | activity when administered by the oral route (human tumor xenografts [9]) | LCK ([4]; IV, optimal dose and schedule, concomitantly tested, first of two experiments) [LCK] | LCK ([4]; IV, optimal dose and schedule, concomitantly tested, second of two experiments) [LCK]
1 | C/C(=C\c1csc(C)n1)[C@@H]1CC2O[C@]2(C)CCC[C@H](C)[C@H](O)[C@@H](C)C(=O)C(C)(C)[C@@H](O)CC(=O)N1 (relative stereo) [test compound, [1 S-[1R*,3R*(E),7R*,10S*,11R*,12R*,16S*]]-7,11-1-Dihydroxy-8,8,10,12,16-pentamethyl-3-[1-methyl-2-(2-methyl-4-thiazolyl)ethenyl]-4-aza-17-oxabicyclo[14.1.0]heptadecane-5,9-dione] | almost completely retaining its cytotoxic potency | far better than paclitaxel | ~7.5 | equivalent to that produced by IV drug administration | about 2.5 fold | 3.1 | 2.5 | highly active orally | 1.4 to 34.5 | equivalent to paclitaxel | similarly potent | more efficacious than paclitaxel | – | – | –
2 | CC(=O)O[C@H]1C(=O)[C@@]2(C)[C@H]([C@H](OC(=O)c3ccccc3)[C@]3(O)C[C@H](OC(=O)[C@H](O)[C@@H](NC(=O)c4ccccc4)c4ccccc4)C(C)=C1C3(C)C)[C@]1(OC(C)=O)CO[C@@H]1C[C@@H]2O [paclitaxel, reference compound] | – | – | – | – | – | – | – | – | – | – | – | – | typically inactive | 1.3 | 1.2
